Experimental data reported in patent US9566312B2, “Cyclic peptides and use as medicines” (priority 2012, dated 2017).
Starred links: 1 amine or outer side, 2 acyl side, 3 side chain; linkers in the order of their positions; H or OH if unused. Non-standard residues stand in square brackets, D forms with d. Residues, ends and D or L forms follow the SMILES beside them. X64 = COC[C@@H]1CN(C[C@@H](C)[C@@H](C(=O)[*:2])N(C)[*:1])CCO1; X83 = C[C@H](COC(=O)N1CCC(O)CC1)[C@@H](C(=O)[*:2])N(C)[*:1]; X39 = C[C@H](CN1CCC(C#N)CC1)[C@@H](C(=O)[*:2])N(C)[*:1]; X47 = C[C@H](CN1CCC(F)(F)C1)[C@@H](C(=O)[*:2])N(C)[*:1]; MeBmt = C/C=C/C[C@@H](C)[C@@H](O)[C@H](NC)C(=O)O; X86 = C[C@@H](CO)[C@@H](C(=O)[*:2])N(C)[*:1]; NMeL = CN[C@@H](CC(C)C)C(=O)O; NMeV = CN[C@H](C(=O)O)C(C)C; dNMeA = CN[C@H](C)C(=O)O; Abu = CC[C@H](N)C(=O)O

Tests used:
[1] = test system: peripheral blood mononuclear cells (PBMC); test: Anti-proliferative or immunosuppressive activity, BrdU incorporation in PHA-stimulated PBMC; format: cell-based; details: PHA 3 μg/ml, 60 hour compound treatment; read-out: EMV PBMC IC50
Description: Method 3: Measuring Anti-Proliferative or Immunosuppressive Activity
The potential anti-proliferative activity of compounds on T-cells was analyzed based on the amount of bromodesoxy uridine (BrdU) incorporated into DNA of fresh peripheral blood mononuclear cells (PBMC) using the BrdU ELISA kit (Roche). The assay is performed in 96-well plate format with 30,000 PBMCs seeded per well in X-VIVO 15 medium (Lonza). T-cell proliferation was stimulated by addition of 3 μg/ml phytohemagglutinin (PHA) in PBMCs obtained from two donors.

cyclophilin B (CypB) = cyclophilin B (CypB) (Homo sapiens (Human), UniProt P23284); test: Inhibitor binding to cyclophilin proteins by SPR, CypB; set-up: unit not given here; details: 1:1 binding model
Description: (§1) Method 1: Measuring Inhibitor Binding to Cyclophilin Proteins
(§2) Binding of inhibitors to expressed cyclophilins was determined using surface plasmon resonance (SPR) experiments. Briefly, avi-tagged cyclophilin proteins with mono-biotinylation were immobilized onto a Biotin CAPture chip (GE Healthcare, cat. #28920234). SPR experiments were carried out on an upgraded Biacore T200 system using a running buffer containing the inhibitor, 10 mM HEPES, pH 7.4, 150 mM NaCl, 0.05% P20, and 3% DMSO. Single-cycle kinetics measurements were used to study the interactions between cyclophilin inhibitors and different cyclophlins. Accordingly, compound at various concentrations was injected to the flow cells with a contact time of 1 min each at a flow rate of 50 μL/min. The final dissociation phase lasts for 10 min following the sample injection. Data was analyzed using Biacore T200 Evaluation Software Version 1.0 and a 1:1 binding model was applied to fit the data to obtain kon, koff, and KD.

cyclophilin A (CypA) = cyclophilin A (CypA) (Homo sapiens (Human), UniProt P62937); test: Inhibitor binding to cyclophilin proteins by SPR, CypA; set-up: unit not given here; details: 1:1 binding model
CypF = CypF (Homo sapiens (Human), UniProt P30405); test: Inhibitor binding to cyclophilin proteins by SPR, CypF; details: 1:1 binding model
Description: as §1, §2

[2] = test system: genotype 1b subgenomic HCV replicon in Huh7.5 cells; format: cell-based, hepatitis C virus; details: genotype 1b replicon, 72 h incubation; read-out: RPLN-1b IC50
Description: Method 2: Measuring Inhibitory Effects in a HCV Replicon System
Susceptibility to compounds was analyzed in Huh7.5 cells containing genotype 1a or 1b subgenomic HCV replicons co-expressing a luciferase reporter gene. The original replicons, pFK389lucubineo_3_3′_ET and pH/SG-Neo(L+I), were licensed from ReBlicon GmbH (Germany) and Apath LLC (Saint Louis, Mo.), respectively. The firefly reporter gen was replaced by renilla luciferase reporter gene using standard molecular biology techniques as follows.
Generation of genotype 1b subgenomic replicon: The renilla […]-neomycin phosphotransferase cassette was amplified from pF9 cytomegalovirus (CMV) hRluc-Neo Flexi(R) (Promega) by PCR using Accuprime super mix II (Invitrogen) and a primer set of Ascl hRlucNeo Fwd and NotI hRluc Rev. These two primers have the following sequences and introduce restriction sites for subsequent cloning: Ascl hRlucNeo Fwd, 5 […] 3(Ascl site underlined) (SEQ. ID No. 1), and NotI hRluc Rev, 5[…] 3(NotI site underlined) (SEQ ID No. 2). The amplification product was subcloned into pCR2.1-TOPO (Invitrogen). The resulting plasmid was digested with Ascl and NotI, and the excised fragment (hRluc-Neo) was ligated with the Roche Quick Ligation Kit (Roche) into pFK1389lucubineo_3_3′_ET digested with the same enzymes.
The assay medium for both, luciferase reporter HCV replicon and cytotoxicity assays contains phenol red-free DMEM and lacks G418. […] Luciferase activity of compound treated cells is measured relative to DMSO treated cells after 72 h incubation using Renilla-Glo™ Luciferase Assay (Promega). Cytotoxicity (CC50) is analyzed using Cell Titer-Glo™ (Promega).

Sequence of CypF (P30405 30-207): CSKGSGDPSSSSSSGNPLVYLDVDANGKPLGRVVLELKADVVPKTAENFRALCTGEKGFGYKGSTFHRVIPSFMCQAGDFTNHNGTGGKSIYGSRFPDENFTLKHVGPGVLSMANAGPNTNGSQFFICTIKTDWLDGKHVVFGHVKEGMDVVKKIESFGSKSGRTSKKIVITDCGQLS
Sequence of cyclophilin A (CypA) (P62937 whole entry): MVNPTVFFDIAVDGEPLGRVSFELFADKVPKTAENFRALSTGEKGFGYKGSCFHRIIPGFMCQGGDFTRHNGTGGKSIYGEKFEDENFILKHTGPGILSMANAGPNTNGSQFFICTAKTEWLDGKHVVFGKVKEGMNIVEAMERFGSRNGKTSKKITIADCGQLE
Sequence of cyclophilin B (CypB) (P23284 34-216): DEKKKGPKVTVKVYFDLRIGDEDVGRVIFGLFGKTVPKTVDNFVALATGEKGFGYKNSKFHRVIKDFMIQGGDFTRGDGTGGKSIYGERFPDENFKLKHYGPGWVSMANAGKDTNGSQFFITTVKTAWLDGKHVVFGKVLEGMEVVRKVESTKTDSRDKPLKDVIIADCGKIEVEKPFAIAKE

Compound	IC50 [1]	CypB Kd (cyclophilin B (CypB))	CypA Kd (cyclophilin A (CypA))	CypF Kd (CypF)	IC50 [2]
C/C=C/C[C@@H](C)[C@@H](O)[C@H]1C(=O)N[C@@H](CC)C(=O)N(C)[C@H](CCCNC)C(=O)N(C)[C@@H]([C@H](C)COC)C(=O)N[C@@H](C(C)C)C(=O)N(C)[C@@H](CC(C)C)C(=O)N[C@@H](C)C(=O)N[C@H](C)C(=O)N(C)[C@@H](CC(C)C)C(=O)N(C)[C@@H](CC(C)C)C(=O)N(C)[C@@H](C(C)C)C(=O)N1C (stereo in doubt) [Compound 3.2.1, 3-[(R)-2,5-bis(methylamino)pentanoyl]-4-[(2S,3S)-4-methoxy-3-methyl-2-(methylamino)butanoyl]-cyclosporin]	34900 nM	3.0	6.3	3.4 nM	4800 nM
C/C=C/C[C@@H](C)[C@@H](O)[C@H]1C(=O)N[C@@H](CC)C(=O)N(C)[C@H](C)C(=O)N(C)[C@@H]([C@H](C)COC(=O)N2CCC(O)CC2)C(=O)N[C@@H](C(C)C)C(=O)N(C)[C@@H](CC(C)C)C(=O)N[C@@H](C)C(=O)N[C@H](C)C(=O)N(C)[C@@H](CC(C)C)C(=O)N(C)[C@@H](CC(C)C)C(=O)N(C)[C@@H](C(C)C)C(=O)N1C [Compound 2.5.8, 3-[D-Ala]-4-[(2S,3S)-4-((4-hydroxypiperidine-1-carbonyl)oxy)-3-methyl-2-(methylamino)butanoyl]-cyclosporin] (cyclo(A[dA][NMeL][NMeL][NMeV][MeBmt][Abu][dNMeA][X83]V[NMeL]))	–	1.0	1.7	1 nM	–
C/C=C/C[C@@H](C)[C@@H](O)[C@H]1C(=O)N[C@@H](CC)C(=O)N(C)[C@H](C)C(=O)N(C)[C@@H]([C@H](C)CN2CCC(F)(F)C2)C(=O)N[C@@H](C(C)C)C(=O)N(C)[C@@H](CC(C)C)C(=O)N[C@@H](C)C(=O)N[C@H](C)C(=O)N(C)[C@@H](CC(C)C)C(=O)N(C)[C@@H](CC(C)C)C(=O)N(C)[C@@H](C(C)C)C(=O)N1C [Compound 2.5.18, 3-[D-Ala]-4-[(2S,3R)-4-(3,3-difluoropyrrolidin-1-yl)-3-methyl-2-(methylamino)butanoyl]-cyclosporin] (cyclo(A[dA][NMeL][NMeL][NMeV][MeBmt][Abu][dNMeA][X47]V[NMeL]))	12100 nM	1.8	3.9	2 nM	9 nM
C/C=C/C[C@@H](C)[C@@H](O)[C@H]1C(=O)N[C@@H](CC)C(=O)N(C)[C@H](C)C(=O)N(C)[C@@H]([C@H](C)CN2CCC(C#N)CC2)C(=O)N[C@@H](C(C)C)C(=O)N(C)[C@@H](CC(C)C)C(=O)N[C@@H](C)C(=O)N[C@H](C)C(=O)N(C)[C@@H](CC(C)C)C(=O)N(C)[C@@H](CC(C)C)C(=O)N(C)[C@@H](C(C)C)C(=O)N1C [Compound 2.5.26, 3-[D-Ala]-4-[(2S,3R)-4-(4-cyanopiperidin-1-yl)-3-methyl-2-(methylamino)butanoyl]-cyclosporin] (cyclo(A[dA][NMeL][NMeL][NMeV][MeBmt][Abu][dNMeA][X39]V[NMeL]))	11600 nM	0.8	1.3	0.8 nM	29 nM
C/C=C/C[C@@H](C)[C@@H](O)[C@H]1C(=O)N[C@@H](CC)C(=O)N(C)[C@H](C)C(=O)N(C)[C@@H]([C@H](C)COC(=O)N(C)C2CCN(C)CC2)C(=O)N[C@@H](C(C)C)C(=O)N(C)[C@@H](CC(C)C)C(=O)N[C@@H](C)C(=O)N[C@H](C)C(=O)N(C)[C@@H](CC(C)C)C(=O)N(C)[C@@H](CC(C)C)C(=O)N(C)[C@@H](C(C)C)C(=O)N1C [Compound 2.5.32, 3-[D-Ala]-4-[(2S,3S)-3-methyl-4-((methyl(1-methylpiperidin-4-yl)carbamoyl)oxy)-2-(methylamino)butanoyl]-cyclosporin]	9500 nM	0.5	0.7	0.4 nM	150 nM
C/C=C/C[C@@H](C)[C@@H](O)[C@H]1C(=O)N[C@@H](CC)C(=O)N(C)[C@H](C)C(=O)N(C)[C@@H]([C@H](C)CN2CCO[C@H](COC)C2)C(=O)N[C@@H](C(C)C)C(=O)N(C)[C@@H](CC(C)C)C(=O)N[C@@H](C)C(=O)N[C@H](C)C(=O)N(C)[C@@H](CC(C)C)C(=O)N(C)[C@@H](CC(C)C)C(=O)N(C)[C@@H](C(C)C)C(=O)N1C [Compound 2.5.34, 3-[D-Ala]-4-[(2S,3R)-4-((S)-2-(methoxymethyl)morpholino)-3-methyl-2-(methylamino)butanoyl]-cyclosporin] (cyclo(A[dA][NMeL][NMeL][NMeV][MeBmt][Abu][dNMeA][X64]V[NMeL]))	19000 nM	0.6	1.3	0.6 nM	27 nM
C/C=C/C[C@@H](C)[C@@H](O)[C@H]1C(=O)N[C@@H](CC)C(=O)N(C)[C@H](C)C(=O)N(C)[C@@H]([C@H](C)COCCN2CC(OC)C2)C(=O)N[C@@H](C(C)C)C(=O)N(C)[C@@H](CC(C)C)C(=O)N[C@@H](C)C(=O)N[C@H](C)C(=O)N(C)[C@@H](CC(C)C)C(=O)N(C)[C@@H](CC(C)C)C(=O)N(C)[C@@H](C(C)C)C(=O)N1C [Compound 2.8.9, 3-[D-Ala]-4-[(2S,3S)-4-(2-(3-methoxyazetidin-1-yl)ethoxy)-3-methyl-2-(methylamino)butanoyl]-cyclosporin]	9100 nM	0.4	0.6	0.3 nM	240 nM
CCCC[C@@H](C)[C@@H](O)[C@H]1C(=O)N[C@@H](CC)C(=O)N(C)[C@H](C)C(=O)N(C)[C@@H]([C@H](C)COCCN2CCOCC2)C(=O)N[C@@H](C(C)C)C(=O)N(C)[C@@H](CC(C)C)C(=O)N[C@@H](C)C(=O)N[C@H](C)C(=O)N(C)[C@@H](CC(C)C)C(=O)N(C)[C@@H](CC(C)C)C(=O)N(C)[C@@H](C(C)C)C(=O)N1C [Compound 2.8.10, 1-dihydro-3-[D-Ala]-4-[(2S,3S)-3-methyl-2-(methylamino)-4-(2-morpholinoethoxy)butanoyl]-cyclosporin]	14500 nM	1.2	2.1	1.1 nM	110 nM
CCCC[C@@H](C)[C@@H](O)[C@H]1C(=O)N[C@@H](CC)C(=O)N(C)[C@H](C)C(=O)N(C)[C@@H]([C@@H](C)CN2CCO[C@H](COC)C2)C(=O)N[C@@H](C(C)C)C(=O)N(C)[C@@H](CC(C)C)C(=O)N[C@@H](C)C(=O)N[C@H](C)C(=O)N(C)[C@@H](CC(C)C)C(=O)N(C)[C@@H](CC(C)C)C(=O)N(C)[C@@H](C(C)C)C(=O)N1C [Compound 2.17.12, 1-dihydro-3-[D-Ala]-4-[(2S,3S)-4-((S)-2-(methoxymethyl)morpholino)-3-methyl-2-(methylamino)butanoyl]-cyclosporin]	–	0.7	1.7	0.8 nM	75 nM
C/C=C/C[C@@H](C)[C@@H](O)[C@H]1C(=O)N[C@@H](CC)C(=O)N(C)[C@H](C)C(=O)N(C)[C@@H]([C@@H](C)CO)C(=O)N[C@@H](C(C)C)C(=O)N(C)[C@@H](CC(C)C)C(=O)N[C@@H](C)C(=O)N[C@H](C)C(=O)N(C)[C@@H](CC(C)C)C(=O)N(C)[C@@H](CC(C)C)C(=O)N(C)[C@@H](C(C)C)C(=O)N1C [Compound 2.17.13, 3-[D-Ala]-4-[(2S,3R)-4-hydroxy-3-methyl-2-(methylamino)butanoyl]-cyclosporin] (cyclo(A[dA][NMeL][NMeL][NMeV][MeBmt][Abu][dNMeA][X86]V[NMeL]))	–	–	–	–	85 nM
